Data as given in US10682339B2, “Pharmaceutical compositions directly targeting FKBP52 for the treatment of prostate cancer and methods of using same” (THE BOARD OF REGENTS OF THE UNIVERSITY OF TEXAS SYSTEM, priority 2014, dated 2020).

What was measured:
[1] = system: 22Rv1 prostate cancer cells; assay: qPCR of endogenous PSA gene expression in 22Rv1 cells; format: cell-based; conditions: absence of hormone
Excerpt: (§1) FIG. 4. GMC1 inhibits hormone-dependent and +independent PSA secretion and hormone dependent proliferation in 22Rv1 prostate cancer cells. (A) ELISA assay in 22Rv1 cells measuring GMC1 effects on PSA secretion in the presence and absence of hormone. (B) qPCR assay in 22Rv1 cells measuring endogenous PSA gene expression in the presence or absence of hormone. For comparison, GMC1, but not MJC13, inhibits hormone-independent PSA secretion and/or expression. (C) A BrdU incorporation assay was used to assess GMC1 effects on hormone-dependent 22Rv1 cell proliferation.

[2] = system: LNCaP prostate cancer cells; assay: ELISA of androgen-dependent PSA secretion from LNCaP cells; format: cell-based; conditions: preliminary
Procedure: (§2) FIG. 3. The FKBP52-specific inhibitor GMC1 inhibits AR and GR activity. (A) Representative AR- and GR-mediated luciferase reporter assays in MDA-kb2 cells with a range of GMC1 concentrations. The average IC50 from 4 independent experiments are shown. (B) A representative luciferase reporter assay in 52KO mouse embryonic fibroblast cells in the presence or absence of FKBP52 were performed. Transfected cells were treated with DHT and a range of concentrations of GMC1 and assessed for AR-dependent expression of a luciferase reporter. The average IC50 of 3 independent assays is shown. (C-D) ELISA assays measuring androgen-dependent PSA secretion form LNCaP (C) and 22Rv1 (D) prostate cancer cells treated with the indicated concentrations of GMC1.

[3] = system: FKBP52-regulated AR activity; assay: AR-dependent luciferase reporter assay in 52KO mouse embryonic fibroblast cells with or without FKBP52; format: cell-based; conditions: 52KO MEF cells, DHT treated
Procedure: as §2

[4] = system: 22Rv1 prostate cancer cells; assay: BrdU incorporation assay of hormone-dependent 22Rv1 cell proliferation; format: cell-based; conditions: 22Rv1 cells
Excerpt: as §1

AR = assay: AR-mediated luciferase reporter assay in MDA-kb2 cells; format: cell-based; conditions: among 40 hits from the virtual screen
Procedure: as §2

GR = assay: GR-mediated luciferase reporter assay in MDA-kb2 cells; format: cell-based
Procedure: as §2

[5] = system: 22Rv1 prostate cancer cells; assay: ELISA of PSA secretion from 22Rv1 cells in the presence and absence of hormone; format: cell-based; conditions: for inhibition of hormone-independent PSA secretion (ELISA): absence of hormone
Procedure: as §2, §1

[6] = target: T1, β-catenin interaction with AR (Homo sapiens, UniProt P10275); assay: β-catenin interaction with AR; conditions: targeting to the AR BF3 surface
T1 sequence (P10275 1-920): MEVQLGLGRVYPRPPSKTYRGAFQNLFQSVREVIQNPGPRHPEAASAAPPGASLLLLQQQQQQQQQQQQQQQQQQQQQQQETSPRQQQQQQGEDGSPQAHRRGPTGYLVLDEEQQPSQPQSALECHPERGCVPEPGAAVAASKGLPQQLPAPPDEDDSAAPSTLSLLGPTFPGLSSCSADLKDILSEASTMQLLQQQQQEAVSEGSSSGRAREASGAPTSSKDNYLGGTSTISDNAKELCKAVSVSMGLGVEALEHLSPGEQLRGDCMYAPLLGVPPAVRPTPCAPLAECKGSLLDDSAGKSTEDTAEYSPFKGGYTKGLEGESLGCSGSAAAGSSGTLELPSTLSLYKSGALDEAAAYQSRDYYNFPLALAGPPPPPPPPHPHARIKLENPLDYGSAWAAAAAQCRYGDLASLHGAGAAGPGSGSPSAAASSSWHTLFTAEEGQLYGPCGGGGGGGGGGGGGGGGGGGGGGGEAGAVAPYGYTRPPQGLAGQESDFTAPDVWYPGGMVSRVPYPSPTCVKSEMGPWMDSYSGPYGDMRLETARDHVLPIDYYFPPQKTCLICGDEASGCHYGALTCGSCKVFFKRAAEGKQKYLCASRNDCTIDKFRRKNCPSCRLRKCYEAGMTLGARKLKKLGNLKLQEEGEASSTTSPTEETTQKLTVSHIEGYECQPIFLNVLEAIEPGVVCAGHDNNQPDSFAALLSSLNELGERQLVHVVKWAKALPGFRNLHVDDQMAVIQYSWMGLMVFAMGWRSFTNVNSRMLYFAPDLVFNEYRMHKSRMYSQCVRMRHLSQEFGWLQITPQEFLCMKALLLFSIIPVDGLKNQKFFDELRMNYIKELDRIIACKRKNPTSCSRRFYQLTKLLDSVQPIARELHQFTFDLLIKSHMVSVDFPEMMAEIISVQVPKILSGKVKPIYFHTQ
Excerpt: MJC13 is described as an inhibitor of FKBP52-regulated AR activity (De Leon et. al. 2011. PNAS. 108 (29): 11878-83) by targeting the AR BF3 surface. A novel mechanism is disclosed by which FKBP52 and β-catenin interact to co-regulate AR activity in prostate cancer cells. […] Specific small molecules docked within the PPIase pocket affect proline-rich loop conformation and interactions. […] Thus, small molecules predicted to target the FKBP52 PPIase pocket have been identified in the disclosed embodiments.

[7] = system: human prostate cancer cell lines; conditions: cited from earlier work
[8] = system: prostate cancer xenograft; conditions: prostate cancer xenograft model; preliminary preclinical studies; cited from earlier work
[9] = variety of human prostate cancer cell lines

Row | Structure (SMILES) | inhibition of hormone-independent PSA gene expression (qPCR) [1] | inhibition of AR-dependent PSA expression (ELISA) [2] | inhibition of FKBP52-regulated AR activity (effective concentration range) [3] | inhibition of hormone dependent proliferation (BrdU incorporation) [4] | inhibition of AR-mediated reporter gene expression (AR) | inhibition of FKBP52-regulated GR activity (effective concentration range) (GR) | inhibition of hormone-independent PSA secretion (ELISA) [5] | inhibition of AR-dependent (hormone-dependent) PSA expression/secretion (ELISA) ([5]; with hormone) | effect on β-catenin interaction with AR [6] | effective drug concentrations (AR BF3 surface targeting) [7] | block of AR signaling [7, 9] | block of AR-dependent cancer cell proliferation [7, 9] | effects on tumor growth [8]
1 | COc1ccc(/C=N/NC(=O)CSc2nc3ccccc3[nH]2)cc1 [GMC1, 2-(1H-benzimidizol-2-ylsulfanyl)-N—[(Z)-(4methoxyphenyl)methylideneamino]acetamide] | inhibits | inhibits | high nanomolar range | inhibits | most potent inhibition | high nanomolar range | inhibits | inhibits | – | – | – | – | –
2 | O=C(Nc1cccc(Cl)c1Cl)C1CCCCC1 [MJC13] | not | – | – | – | – | – | not | – | abrogates | low micromolar range | effectively block | effectively block | impressive effects on tumor growth
